Results from patent publication US9452159B2, “6-aminopyridine-3-ol derivatives or pharmaceutically acceptable salts thereof, and pharmaceutical composition containing same as active ingredients for preventing or treating diseases caused by angiogenesis” (Research Cooperation Foundation of Yeungnam University, priority 2011, dated 2016).

Tests used:
[1] = test system: chorioallantoic membrane (CAM); assay: Chorioallantoic membrane (CAM) assay, VEGF-derived angiogenesis; assay type: in vivo, chick
Experimental: To examine angiogenesis inhibiting effects in vivo, CAM assay was performed (Nguyen Metal., Microvascular Res., 47, pp 31-40, 1994). Hen's fertile eggs were incubated at a temperature of 37° C. and in relative humidity 55%, and on the 10th day after the incubation, an air sac site was punched by using a hypodermic needle (Greencross Medical Science Corp, Korea) to form a first hole, and then, a planar site of the fertile egg where a window was to be formed was punched to form a second hole. Air was removed through the first pore of the air sac site to allow the chorioallantoic membrane (CAM) to be separated from the shell of the fertile egg, and this site was cut by using a grinding wheel (Multipro 395JA, Dremel, Mexico) to form a window. […] Through the window, the filter disc was placed on blood vessels, which were then treated with the compounds each dissolved in dimethylsulfoxide (DMSO) and diluted with phosphate buffer solution (PBS) at various concentrations. 3 days after the treatment with the compounds, the CAM site with the filter disc placed thereon was separated, and then washed with a phosphate buffer solution, and an image thereof was obtained by using a stereomicroscope (Stemi SV6 stereomicroscope, Carl Zeiss, Germany) and image-Pro Plus software (Media Cybernetics; Silver Spring, Md., U.S.A.) to count the number of blood vessel branches, and the obtained results were assayed.

A549 lung cancer cells = assay: Oncogenesis-derived angiogenesis and tumor growth on CAM inoculated with A549 lung cancer cells; assay type: in vivo, chick; settings: A549 cells 1.5×10^6 cell/CAM, various concentrations, five days after inoculation; FIG. 4
Experimental: Hen's fertile eggs were incubated, and on the 9th day, a window was formed in the same manner as in Experimental Example 1, and instead of a disc, A549 lung cancer cells were mixed with matrigel at a ratio of 1:1, and then the cells were treated with Compounds 6a and 6i and inoculated at a concentration of 1.5×10^6 cell/CAM. Five days after the inoculation, the CAM site where tumors developed was separated and washed with a phosphate buffer solution, and then, an image thereof was obtained by using a stereomicroscope (Stemi SV6 stereomicroscope, Carl Zeiss, Germany) and Image-Pro Plus software (Media Cybernetics; Silver Spring, Md., U.S.A.) to count the number of blood vessel branches, and the results were assayed.

HUVEC cells = assay: VEGF-derived ROS scavenging ability (DCF-DA fluorescence); assay type: cell-based; settings: HUVEC pretreated 3 hours, then VEGF 15 minutes, compared to VEGF, FIG. 5
Experimental: (§1) DCF-DA (2′,7′-dichlorofluorescein diacetate) was used to measure a VEGF-derived ROS scavenging ability in HUVEC cells. When ROS exists in cells, DCF-DA is oxidized into fluorescent DCF, thereby emitting green fluorescent light. 1×10^5 concentration of HUVEC was spread onto a 0.2% gelatin coated 8-well plate, and then incubated for 24 hours. The cells were pretreated with Compounds 6a or 6i for 3 hours and then, treated with VEGF for 15 minutes, and then, washed three times with PBS (pH 7.4), and then, 10 μM of DCF-DA was added to EBM-2 medium, which was then placed in dark condition for 30 minutes. Then, the cells were washed three times with PBS, and a degree of intracellular fluorescence was measured by using a fluorescent microscope.

[2] = test system: ARPE-19 (adult retinal pigment epithelium-19) cell line; assay: Macular degeneration risk factor-derived ROS scavenging ability; assay type: cell-based; settings: compared to a control
Experimental: as §1
The same experiment as used in Experimental Example 3 was performed, except that ARPE-19 (adult retinal pigment epithelium-19) cell line was treated with 4-hydroxynonenal (4-HNE) or angiotensin II (Ang II), which are macular degeneration risk factors, to identify ROS scavenging ability of Compound 6a.

Male Balb/c mice = assay: Toxicity test, single oral administration; assay type: in vivo; settings: once, 0.5 g/kg, 1 g/kg and 2 g/kg in 0.5% methylcellose, 7 days
Experimental: Male Balb/c mice were orally administered once with Compound 6a suspended in a 0.5% methylcellose solution, in a dosage of each of 0.5 g/kg, 1 g/kg, and 2 g/kg, and then, for 7 days, the survival rate and body weight of the mice were measured.
After the administration, the death, clinical symptoms, and body weight change of the mice were analyzed, and a hematological examination and a blood biochemical examination were performed. Then, the autopsy of the mice was performed, and abnormality of abdominal cavity organs and thoracic cavity organs was examined.

For Cc1nc(N)c(C)c(C)c1O [Compound 6a, 6-amino-2,4,5-trimethylpyridin-3-ol], the inhibition in vivo at 0.1 µM ([1]; Gallus gallus, 72 h, VEGF (50 ng/CAM) + 0.15 ng/CAM, 0.1 μM, 3 days after treatment, read-out: Inhibition ratio) was 64 ± 8.8%, the inhibition in vivo at 1 µM ([1]; Gallus gallus, 72 h, VEGF (50 ng/CAM) + 1.5 ng/CAM, 1 μM, 3 days after treatment, read-out: Inhibition ratio) was 76.3 ± 5.2% and the IC50 ([1]; Gallus gallus, CAM treated with various concentrations, FIG. 3, read-out: IC50 with respect to angiogenesis inhibition) was 2 nM. The “Number of blood vessel branches/main blood vessel” value ([1]; VEGF (50 ng/CAM) + 0.15 ng/CAM, 0.1 μM, 3 days after treatment) was 28 ± 3.3^8, the “Number of blood vessel branches/main blood vessel” value ([1]; VEGF (50 ng/CAM) + 1.5 ng/CAM, 1 μM, 3 days after treatment) was 23.3 ± 2.0^8 and the angiogenesis inhibiting effects ([1]; VEGF-treated CAM, summary of Table 1, 6a compared with SU4312, batimastat and α-tocopherol) was “excellent angiogenesis inhibiting effects even at low concentration”. The oncogenesis-derived angiogenesis (A549 lung cancer cells) was “inhibited”, the tumor growth (A549 lung cancer cells) was “inhibited” and the “degree of intracellular fluorescence (VEGF-derived ROS)” value (HUVEC cells) was “substantial decrease”. The “degree of intracellular fluorescence (ROS), 4-hydroxynonenal (4-HNE)” value ([2]; ARPE-19 treated with 4-HNE, FIG. 7) was “substantially decreased”, the “degree of intracellular fluorescence (ROS), angiotensin II (Ang II)” value ([2]; ARPE-19 treated with Ang II, FIG. 6) was “substantially decreased” and the “body weight change, blood examination, blood biochemical examination, and autopsy results” value (Male Balb/c mice) was “no toxicity change”. For the same compound, the clinical symptoms (Male Balb/c mice) was “did not have distinguishing clinical symptoms” and the death (Male Balb/c mice) was “did not die”.
